In one experiment the test system is E. coli Af31. Nature of the experiment: MIC, broth microdilution (EUCAST). Type of experiment: cell-based, Escherichia coli. On the procedure:
(§1) The MICs of Pep16 and colistin were determined by the broth microdilution method in accordance with the EUCAST guidelines (www.eucast.org, accessed on 2 September 2022). In order to investigate for the presence of a potential inoculum effect in vitro, MICs were performed with various inoculum sizes, increasing from 10^5 to 10^7 CFU/mL. To explore MIC variations in the presence of albumin, MICs were also determined in Mueller–Hinton broth (MHB) supplemented with 4% human albumin.

The subject of another experiment is E. coli B119. Nature of the experiment: MIC, broth microdilution (EUCAST). The following applies: B119, inoculum 10^5 CFU/mL. Format: cell-based, Escherichia coli. Here is the method:
as §1

Experiment [1] concerns E. coli CFT073-pTOPO-COLR. Nature of the experiment: MIC, broth microdilution (EUCAST). Type of experiment: cell-based, Escherichia coli. On the procedure: as §1
The subject of experiment [2] is E. coli CFT073-pTOPO. Kind of experiment: MIC, broth microdilution (EUCAST). Type of experiment: cell-based, Escherichia coli. Particulars: at least three experiments. Here is the method:
as §1

Experiment [3] deals with E. coli CFT073-pTOPO. Format: in vivo, mice. The following applies: peritonitis due to CFT073-pTOPO; for mean bacterial counts in the spleen / mice that died before the planned time of the sacrifice: single s.c. dose 2 h after inoculation: Pep16 10 mg/kg, colistin 10 mg/kg, cefotaxime 100 mg/kg, or colistin 10 + Pep16 10 mg/kg; for mice that died before the planned time of the sacrifice: planned sacrifice 3, 6, 12 h. On the procedure: (§2) Animal experiments were performed in accordance with the prevailing regulations and ethical requirements of the Direction of Veterinary Services of Paris. The experimental protocol was approved by the French Ministry of Research and by the Ethics Committee for Animal Experiments (No. APAFIS 22330-2019092415325730). Animals were housed in regulation cages and given free access to food and water. Swiss ICR-strain female mice weighing 25 to 30 g were used.
We used the lethal murine intraperitoneal infection model previously developed by our group. Mice were inoculated by the intraperitoneal route with 250 μL of a bacterial suspension in porcine mucin 10% (Sigma–Aldrich), corresponding to a final inoculum of approximately 2.5 × 10^7 CFU/mL. The strains tested were CFT073-pTOPO and CFT073-pTOPO-COLR. Two hours after inoculation, at least three mice per strain were sacrificed to determine the pre-therapeutic bacterial loads, referred to as start-of-treatment controls, since all untreated mice died within 12 h (data not shown), preventing the use of end-of-treatment controls. Each treatment group was composed of 9 mice, which were administered a single dose of antibiotic (or of a combination of antibiotics) subcutaneously 2 h after inoculation. The treatment groups were Pep16 10 mg/kg, colistin 10 mg/kg, cefotaxime 100 mg/kg, and Pep16 10 mg/kg + colistin 10 mg/kg. Doses of cefotaxime and colistin were chosen based on previous pharmacokinetic analysis, while the dose of Pep16 was chosen based on the present survival study and pharmacokinetic analysis. In each treatment group, mice were sacrificed by 200 µL of pentobarbital 40% (Euthasol VetVR, Dechra Veterinary Products, Montigny-Le-Bretonneux, France) in a sequential way: 3 mice 3 h after treatment, 3 mice 6 h after treatment, and 3 mice 12 h after treatment. Immediately after death, the spleens were extracted and homogenized. Samples were plated on LB agar. To detect resistant mutants after treatment with colistin, samples were also plated on LB agar containing colistin at 4× MIC. The MICs of colistin-resistant mutants were determined (see above). Colony counts were then determined after 48 h of culture. Endpoints were spontaneous death (before the planned time of the sacrifice), bacterial counts in the spleen, and the emergence of colistin-resistant mutants. The assessment criteria of the murine model were: (i) mortality rate; (ii) bacterial counts in peritoneal fluid (PF) and the spleen; and (iii) the selection of colistin-resistant mutants after 24 h of treatment.

Experiment [4] relates to E. coli CFT073-pTOPO. Kind of experiment: Flow cytometry study of membrane permeability (Live/Dead BacLight, SYTO9/PI). Type of experiment: cell-based, Escherichia coli. The following applies: 30 min exposure, 10^6 CFU/mL; colistin 0.25 mg/L (0.25x MIC), Pep16 16 mg/L (0.25x MIC), alone or combined; positive control 90% ethanol; D/M = Q3/(Q1+Q2+Q3).
Method: Flow cytometry was used to investigate membrane permeability after exposure to antibiotics. Experiments were executed on a Fortessa X-20 flow cytometer (Becton Dickinson, Le Pont de Claix, France) equipped with a 488 nm laser. Exponentially growing E. coli CFT073-pTOPO cells at 10^6 CFU/mL were obtained and incubated with colistin and/or Pep16 at 0.25× MIC during 30 min. […] The samples were centrifuged and reconstituted in phosphate-buffered saline twice. Cells were then stained by using a Live/Dead BacLight kit (Molecular Probes, Invitrogen, Cergy-Pontoise, France) as previously shown [20]. The kit consists of two fluorescent intercalating agents, propidium iodide (PI) and SYTO9, which both stain nucleic acids. The green-fluorescing SYTO9 is able to enter all cells when used alone, whereas the red-fluorescing PI only enters cells with damaged cytoplasmic membranes. The appropriate mixture of the SYTO9 and PI stains enables differentiation between bacteria with intact cytoplasmic membranes and dead bacteria with permeabilized cytoplasmic membranes. Optical filters were set up such that red fluorescence was measured at 635 nm and green fluorescence was measured at 500 nm. The proportion of dead cells (colored in red)/marked cells (colored in red and/or green) was retrieved for each condition. A minimum of 50,000 events per condition were recorded.
For experiment [5], the system named is E. coli CFT073-pTOPO-COLR. Kind of experiment: Murine peritoneal infection model. Format: in vivo, mice. The following applies: peritonitis due to CFT073-pTOPO-COLR; single s.c. dose: Pep16 10 mg/kg, colistin 10 mg/kg, or colistin 10 + Pep16 10 mg/kg. Here is the method:
as §2
We used the lethal murine intraperitoneal infection model previously developed by our group. Mice were inoculated by the intraperitoneal route with 250 μL of a bacterial suspension in porcine mucin 10% (Sigma–Aldrich), corresponding to a final inoculum of approximately 2.5 × 10^7 CFU/mL. The strains tested were CFT073-pTOPO and CFT073-pTOPO-COLR. Two hours after inoculation, at least three mice per strain were sacrificed to determine the pre-therapeutic bacterial loads, referred to as start-of-treatment controls, since all untreated mice died within 12 h (data not shown), preventing the use of end-of-treatment controls. Each treatment group was composed of 9 mice, which were administered a single dose of antibiotic (or of a combination of antibiotics) subcutaneously 2 h after inoculation. […] The MICs of colistin-resistant mutants were determined (see above). Colony counts were then determined after 48 h of culture. […]

The test system of experiment [6] is colistin-resistant mutants of E. coli CFT073-pTOPO and B119. Nature of the experiment: MIC for colistin-resistant mutants selected in time-kill curves. Type of experiment: cell-based, Escherichia coli. The following applies: mutants after 24 h of exposure to colistin alone in time-kill curves. On the procedure:
as §1
Time–kill curves were performed with Pep16 (4–128 mg/L) and colistin (0.5–8 mg/L) alone or in combination. Exponentially growing E. coli cells were incubated in 10 mL of Mueller–Hinton broth to obtain 10^6 CFU/mL with Pep16 and/or colistin. Viable counts were enumerated by plating 100 μL of appropriate culture dilutions on to lysogeny broth (LB) agar plates after 0, 1, 3, 6, and 24 h of incubation at 37 °C and expressed in log10 CFU/mL. The lower limit of detection was 1 log10 CFU/mL. A bactericidal effect is defined as a 3 log10 decrease in CFU counts compared with the initial inoculum. A synergistic effect is defined as a 2 log10 decrease in CFU counts between the combination and its most-active constituent after 24 h. […] The MICs of colistin-resistant mutants after 24 h of colistin monotherapy were determined (see above). […]

Values after ≈ are worked out from the molar mass of the structure shown. Where two headings read alike, the source gives them in different places.

Consider `CO/N=C(\C(=O)N[C@@H]1C(=O)N2C(C(=O)O)=C(COC(C)=O)CS[C@H]12)c1csc(N)n1` [Cefotaxime, cefotaxime], for which the MIC in the experiment on E. coli Af31 (Escherichia coli, AF31) was 0.06 µg/mL (≈ 0.132 µM); with E. coli B119 (Escherichia coli, read-out: MIC), 0.06 µg/mL (≈ 0.132 µM); in experiment [1] (Escherichia coli), 0.06 µg/mL (≈ 0.132 µM); with E. coli CFT073-pTOPO [2] (Escherichia coli, CFT073PTOPO, inoculum 10^5 CFU/mL), 0.06 µg/mL (≈ 0.132 µM); in the experiment on E. coli CFT073-pTOPO [2] (Escherichia coli, CFT073PTOPO, inoculum 10^6 CFU/mL) it was 1 µg/mL (≈ 2.2 µM); against E. coli CFT073-pTOPO [2] (Escherichia coli, CFT073PTOPO, inoculum 10^7 CFU/mL), 8 µg/mL (≈ 17.6 µM). In addition, the “mean bacterial counts in the spleen” value in the experiment with E. coli CFT073-pTOPO [3] is 3.6 × 10^6 CFU/g. Further, the “mice that died before the planned time of the sacrifice” value in the experiment with E. coli CFT073-pTOPO [3] is on record as 0/9.

Take colistin sulfate: the MIC in the experiment on E. coli Af31 (Af31 (mcr-1 plasmid), inoculum 10^5 CFU/mL) amounted to 8 µg/mL; in the experiment with E. coli B119 it was 1 µg/mL; in experiment [1] (CFT073-pTOPO-COLR, inoculum 10^5 CFU/mL), 16 µg/mL; against E. coli CFT073-pTOPO [2] (inoculum 10^5 CFU/mL), 1 µg/mL; with E. coli CFT073-pTOPO [2] (inoculum 10^6 CFU/mL) it was 2 µg/mL; against E. coli CFT073-pTOPO [2] (inoculum 10^7 CFU/mL) it was 32 µg/mL. In the experiment with E. coli CFT073-pTOPO [4], the “percentage of dead cells/marked cells (D/M)” value came out at 60%. Moreover, in the experiment on E. coli CFT073-pTOPO [3] (colistin 10 mg/kg alone or with Pep16 10 mg/kg), the “proportion of mice with colistin-resistant mutants” value was 9/9. Besides, the “mean counts of colistin-resistant mutants in the spleens” value with E. coli CFT073-pTOPO [3] (colistin 10 mg/kg alone or with Pep16 10 mg/kg, LB agar with colistin at 4x MIC) is 1.6 × 10^3 CFU/g. In addition, the entries for the “mean bacterial counts in the spleen” value (in the experiment on E. coli CFT073-pTOPO [3]; in experiment [5]) were 2.7 × 10^8 CFU/g and 4.0 × 10^8 CFU/g, respectively. For the same molecule, the “mice that died before the planned time of the sacrifice” value in the experiment on E. coli CFT073-pTOPO [3] is listed as 1/9; in experiment [5], 5/9. Further, the “MIC of colistin-resistant mutants” value in experiment [6] lay in the range of 8 to 16 mg/L.

For the origin of these results see paper PMC9854584, “Synergistic Activity of Pep16, a Promising New Antibacterial Pseudopeptide against Multidrug-Resistant Organisms, in Combination with Colistin against Multidrug-Resistant Escherichia coli, In Vitro and in a Murine Peritonitis Model” (Antibiotics, 2023).
